For assay [1], the system named is antibodies in sera from SARS patients (sera 1a, 1b, 2, 6, 37, 62, London, SARS-yellow, SARS-green). The format is binding, human. Also on record: Binding of serum 6 to linear peptides of protein X1 of SARS-CoV Urbani / Binding of serum 37 to linear peptides of protein X1 of SARS-CoV Urbani / Binding of serum 6 to looped/cyclic peptide (PEPSCAN-ELISA) / Binding of serum 37 to looped/cyclic peptide (PEPSCAN-ELISA) / Binding of serum 37 to looped/cyclic peptides of protein X1 of SARS-CoV Urbani / Binding of serum 6 to linear peptides of protein X2 / Binding of serum 37 to linear peptides of protein X2 / Binding of serum 37 to looped/cyclic peptides of protein X2 of SARS-CoV Urbani / Binding of serum 6 to linear peptides of protein M of SARS-CoV Urbani / Binding of serum 37 to linear peptides of protein M of SARS-CoV Urbani / Binding of serum 6 to looped/cyclic peptides of protein M of SARS-CoV Urbani / Binding of serum 37 to looped/cyclic peptides of protein M of SARS-CoV Urbani / Binding of serum 6 to linear peptides of protein X3 of SARS-CoV Urbani / Binding of serum 37 to linear peptides of protein X3 of SARS-CoV Urbani / Binding of serum 37 to looped/cyclic peptides of protein X3 of SARS-CoV Urbani / Binding of serum 6 to linear peptides of protein X4 of SARS-CoV Urbani / Binding of serum 37 to linear peptides of protein X4 of SARS-CoV Urbani / Binding of serum 37 to looped/cyclic peptides of protein X4 of SARS-CoV Urbani / Binding of serum 6 to linear peptides of protein X5 of SARS-CoV Urbani / Binding of serum 37 to linear peptides of protein X5 of SARS-CoV Urbani / Binding of serum 37 to looped/cyclic peptides of protein X5 of SARS-CoV Urbani / Binding of serum 6 to linear peptides of protein N of SARS-CoV Urbani / Binding of serum 37 to linear peptides of protein N of SARS-CoV Urbani / Binding of serum 6 to linear peptide (PEPSCAN-ELISA) / Binding of serum 1a to looped/cyclic peptides of protein N of SARS-CoV Urbani / Binding of serum 1b to looped/cyclic peptides of protein N of SARS-CoV Urbani / Binding of serum 2 to looped/cyclic peptides of protein N of SARS-CoV Urbani / Binding of serum 6 to looped/cyclic peptides of protein N of SARS-CoV Urbani / Binding of serum 37 to looped/cyclic peptides of protein N of SARS-CoV Urbani / Binding of serum 62 to looped/cyclic peptides of protein N of SARS-CoV Urbani / Binding of serum London to looped/cyclic peptides of protein N of SARS-CoV Urbani / Binding of serum SARS-green to looped/cyclic peptides of protein N of SARS-CoV Urbani: unit not given here.

Assay [2] relates to control sera (pooled serum of ten healthy LUMC hospital workers; commercial negative donor pooled serum from the Dutch bloodbank). Type of assay: binding, human. On the set-up: Binding of Control serum LUMC to linear peptides / Binding of Control serum Blood-bank to linear peptides / Binding of Control serum LUMC to looped peptides / Binding of Control Serum Blood-Bank to Looped peptides / Binding of Control serum LUMC to linear peptides of the protein M of SARS-CoV Urbani / Binding of Control serum Blood-bank to linear peptides of the protein M of SARS-CoV Urbani / Binding of Control serum LUMC to looped peptides of the protein M of SARS-CoV Urbani / Binding of Control Serum Blood-Bank to Looped peptides of the protein M of SARS-CoV Urbani: unit not given here.

For assay [3], the system named is rabbit serum obtained by immunizing a rabbit with the SARS-CoV strain Frankfurt 1. Type of assay: binding. On the set-up: Binding of a rabbit serum to linear peptides / Binding of a rabbit serum to looped peptides / Rabbit serum linear peptides / Rabbit serum looped peptides / Binding of a rabbit serum to linear peptides of protein N of SARS-CoV Urbani (Rabbit serum linear peptides) / Binding of a rabbit serum to looped/cyclic peptides of protein N of SARS-CoV Urbani (Rabbit serum looped peptides): unit not given here.

Regarding IENATFFIFNKLVKD, in assay [1], the “Binding of serum 1a to linear peptides of protein X1 of SARS-CoV Urbani” value is 0.6, the “Binding of serum 1a to looped/cyclic peptides of protein X1 of SARS-CoV Urbani” value stood at 0.5, the “Binding of serum 1b to linear peptides of protein X1 of SARS-CoV Urbani” value is on record as 0.5 and the “Binding of serum 1b to looped/cyclic peptides of protein X1 of SARS-CoV Urbani” value worked out at 0.4. Besides, in assay [1], the “Binding of serum 2 to linear peptides of protein X1 of SARS-CoV Urbani” value was 0.5, the “Binding of serum 2 to looped/cyclic peptides of protein X1 of SARS-CoV Urbani” value worked out at 0.4, the “Binding of serum 6 to linear peptides of protein X1 of SARS-CoV Urbani” value is reported as 0.3 and the “Binding of serum 6 to looped/cyclic peptides of protein X1 of SARS-CoV Urbani” value is recorded as 0.2. In assay [1], the “Binding of serum 37 to linear peptides of protein X1 of SARS-CoV Urbani” value came out at 0.5, the “Binding of serum 37 to looped/cyclic peptides of protein X1 of SARS-CoV Urbani” value was 0.5, the “Binding of serum 62 to linear peptides of protein X1 of SARS-CoV Urbani” value is given as 0.5 and the “Binding of serum 62 to looped/cyclic peptides of protein X1 of SARS-CoV Urbani” value amounted to 0.5. Further, in assay [1], the “Binding of serum London to linear peptides of protein X1 of SARS-CoV Urbani” value came out at 0.2, the “Binding of serum London to looped/cyclic peptides of protein X1 of SARS-CoV Urbani” value amounted to 0.2, the “Binding of serum SARS-green to linear peptides of protein X1 of SARS-CoV Urbani” value worked out at 0.2 and the “Binding of serum SARS-green to looped/cyclic peptides of protein X1 of SARS-CoV Urbani” value was found to be 0.1. In assay [1], the “Binding of serum SARS-yellow to linear peptides of protein X1 of SARS-CoV Urbani” value is recorded as 0.4 and the “Binding of serum SARS-yellow to looped/cyclic peptides of protein X1 of SARS-CoV Urbani” value is listed as 0.3. Further, in assay [2], the “Binding of Control Serum Blood-Bank to Looped peptides” value came out at 0.5, the “Binding of Control serum Blood-bank to linear peptides” value is 0.4, the “Binding of Control serum LUMC to linear peptides” value came out at 0.3 and the “Binding of Control serum LUMC to looped peptides” value came out at 0.5. Moreover, in assay [3], the “Binding of a rabbit serum to linear peptides” value is 0.1 and the “Binding of a rabbit serum to looped peptides” value is recorded as 0.5.
IHTIDGSSGVANPAM: in assay [1], the “Binding of serum 1a to linear peptides of protein X1 of SARS-CoV Urbani” value is on record as 0.7, the “Binding of serum 1a to looped/cyclic peptides of protein X1 of SARS-CoV Urbani” value is given as 0.5, the “Binding of serum 1b to linear peptides of protein X1 of SARS-CoV Urbani” value turned out to be 0.7 and the “Binding of serum 1b to looped/cyclic peptides of protein X1 of SARS-CoV Urbani” value amounted to 0.4. Moreover, in assay [1], the “Binding of serum 2 to linear peptides of protein X1 of SARS-CoV Urbani” value is on record as 0.8, the “Binding of serum 2 to looped/cyclic peptides of protein X1 of SARS-CoV Urbani” value was 0.3, the “Binding of serum 6 to linear peptides of protein X1 of SARS-CoV Urbani” value was 0.5 and the “Binding of serum 6 to looped/cyclic peptides of protein X1 of SARS-CoV Urbani” value came out at 0.2. In addition, in assay [1], the “Binding of serum 37 to linear peptides of protein X1 of SARS-CoV Urbani” value came out at 0.7, the “Binding of serum 37 to looped/cyclic peptides of protein X1 of SARS-CoV Urbani” value is 0.3, the “Binding of serum 62 to linear peptides of protein X1 of SARS-CoV Urbani” value is recorded as 0.8 and the “Binding of serum 62 to looped/cyclic peptides of protein X1 of SARS-CoV Urbani” value was 0.3. In addition, in assay [1], the “Binding of serum London to linear peptides of protein X1 of SARS-CoV Urbani” value is recorded as 0.5, the “Binding of serum London to looped/cyclic peptides of protein X1 of SARS-CoV Urbani” value came to 0.2, the “Binding of serum SARS-green to linear peptides of protein X1 of SARS-CoV Urbani” value was 0.5 and the “Binding of serum SARS-green to looped/cyclic peptides of protein X1 of SARS-CoV Urbani” value is 0.3. Further, in assay [1], the “Binding of serum SARS-yellow to linear peptides of protein X1 of SARS-CoV Urbani” value came to 0.6 and the “Binding of serum SARS-yellow to looped/cyclic peptides of protein X1 of SARS-CoV Urbani” value is reported as 0.2. Further, in assay [2], the “Binding of Control Serum Blood-Bank to Looped peptides” value is 0.4, the “Binding of Control serum Blood-bank to linear peptides” value is listed as 0.7, the “Binding of Control serum LUMC to linear peptides” value came out at 0.8 and the “Binding of Control serum LUMC to looped peptides” value was 0.4. In addition, in assay [3], the “Binding of a rabbit serum to linear peptides” value worked out at 0.1 and the “Binding of a rabbit serum to looped peptides” value came to 0.5.
As for IIKLVFLWLLWPVTL, in assay [1], the “Binding of serum 1a to linear peptides of protein M of SARS-CoV Urbani” value is 0.7, the “Binding of serum 1a to looped/cyclic peptides of protein M of SARS-CoV Urbani” value was 0.6, the “Binding of serum 1b to linear peptides of protein M of SARS-CoV Urbani” value is recorded as 0.5 and the “Binding of serum 1b to looped/cyclic peptides of protein M of SARS-CoV Urbani” value is reported as 0.7. Moreover, in assay [1], the “Binding of serum 2 to linear peptides of protein M of SARS-CoV Urbani” value is on record as 0.4, the “Binding of serum 2 to looped/cyclic peptides of protein M of SARS-CoV Urbani” value worked out at 0.5, the “Binding of serum 6 to linear peptides of protein M of SARS-CoV Urbani” value is 0.4 and the “Binding of serum 6 to looped/cyclic peptides of protein M of SARS-CoV Urbani” value stood at 0.5. Also, in assay [1], the “Binding of serum 37 to linear peptides of protein M of SARS-CoV Urbani” value was found to be 0.3, the “Binding of serum 37 to looped/cyclic peptides of protein M of SARS-CoV Urbani” value turned out to be 0.5, the “Binding of serum 62 to linear peptides of protein M of SARS-CoV Urbani” value worked out at 0.3 and the “Binding of serum 62 to looped/cyclic peptides of protein M of SARS-CoV Urbani” value is reported as 0.6. In assay [1], the “Binding of serum London to linear peptides of protein M of SARS-CoV Urbani” value turned out to be 0.3, the “Binding of serum London to looped/cyclic peptides of protein M of SARS-CoV Urbani” value was determined as 0.2, the “Binding of serum SARS-green to linear peptides of protein M of SARS-CoV Urbani” value came to 0.4 and the “Binding of serum SARS-green to looped/cyclic peptides of protein M of SARS-CoV Urbani” value is recorded as 0.3. For the same sequence, in assay [1], the “Binding of serum SARS-yellow to linear peptides of protein M of SARS-CoV Urbani” value amounted to 0.2 and the “Binding of serum SARS-yellow to looped/cyclic peptides of protein M of SARS-CoV Urbani” value stood at 0.4. Moreover, in assay [2], the “Binding of Control Serum Blood-Bank to Looped peptides of the protein M of SARS-CoV Urbani” value was found to be 0.7, the “Binding of Control serum Blood-bank to linear peptides of the protein M of SARS-CoV Urbani” value was 0.5, the “Binding of Control serum LUMC to linear peptides of the protein M of SARS-CoV Urbani” value turned out to be 0.6 and the “Binding of Control serum LUMC to looped peptides of the protein M of SARS-CoV Urbani” value is on record as 0.6. In addition, in assay [3], the “Rabbit serum linear peptides” value is given as 0.1 and the “Rabbit serum looped peptides” value is 0.0.
Turning to IILFLTLIVFTSCEL, in assay [1], the “Binding of serum 1a to linear peptides of protein X4 of SARS-CoV Urbani” value turned out to be 0.8, the “Binding of serum 1a to looped/cyclic peptides of protein X4 of SARS-CoV Urbani” value came out at 0.7, the “Binding of serum 1b to linear peptides of protein X4 of SARS-CoV Urbani” value was determined as 0.8 and the “Binding of serum 1b to looped/cyclic peptides of protein X4 of SARS-CoV Urbani” value stood at 0.1. In addition, in assay [1], the “Binding of serum 2 to linear peptides of protein X4 of SARS-CoV Urbani” value is given as 0.6, the “Binding of serum 2 to looped/cyclic peptides of protein X4 of SARS-CoV Urbani” value was determined as 0.6, the “Binding of serum 6 to linear peptides of protein X4 of SARS-CoV Urbani” value is on record as 0.5 and the “Binding of serum 6 to looped/cyclic peptides of protein X4 of SARS-CoV Urbani” value is listed as 0.5. Moreover, in assay [1], the “Binding of serum 37 to linear peptides of protein X4 of SARS-CoV Urbani” value stood at 0.9, the “Binding of serum 37 to looped/cyclic peptides of protein X4 of SARS-CoV Urbani” value is recorded as 0.7, the “Binding of serum 62 to linear peptides of protein X4 of SARS-CoV Urbani” value came to 0.8 and the “Binding of serum 62 to looped/cyclic peptides of protein X4 of SARS-CoV Urbani” value came to 0.7. Also, in assay [1], the “Binding of serum London to linear peptides of protein X4 of SARS-CoV Urbani” value turned out to be 0.7, the “Binding of serum London to looped/cyclic peptides of protein X4 of SARS-CoV Urbani” value is listed as 0.2, the “Binding of serum SARS-green to linear peptides of protein X4 of SARS-CoV Urbani” value is 0.6 and the “Binding of serum SARS-green to looped/cyclic peptides of protein X4 of SARS-CoV Urbani” value is given as 0.4. In assay [1], the “Binding of serum SARS-yellow to linear peptides of protein X4 of SARS-CoV Urbani” value is on record as 0.7 and the “Binding of serum SARS-yellow to looped/cyclic peptides of protein X4 of SARS-CoV Urbani” value came out at 0.6. In assay [2], the “Binding of Control Serum Blood-Bank to Looped peptides” value came out at 0.7, the “Binding of Control serum Blood-bank to linear peptides” value turned out to be 0.7, the “Binding of Control serum LUMC to linear peptides” value amounted to 0.9 and the “Binding of Control serum LUMC to looped peptides” value was determined as 0.6. In assay [3], the “Rabbit serum linear peptides” value is 0.8 and the “Rabbit serum looped peptides” value was 0.5.

These data come from patent US20070128217A1 (priority 2003, published 2007).
